# Key:
# [1] = tested on: KG1a cell line; assay: Annexin V/propidium iodide cytotoxicity, KG1a unsorted; format: cell-based; settings: for LD50: Homo sapiens, KG-1a, Annexin V/propidium iodide, 72 hrs; for cytotoxic potency compared in words: KG1a, versus 8-chloroadenosine or other isomers (FIG. 1, FIG. 7)
# Description: A further comparative analysis of the toxicity of compounds in the KG1a cell line over an extended dose range was carried out, and the relative effect assessed of the compounds on the leukaemic stem cell compartment within the KG1a cell line, across the entire dose range. Thus, experimental tests were performed on certain compounds of the present invention to assess their ability to target cancer stem cells in a leukaemic cell line. The acute myeloid leukaemia (AML) cell line, KG1a, was employed to assess the relative effect of compounds on the stem cell compartment. The KG1a cell line was selected because it manifests a minor stem cell-like compartment with a distinct immunophenotype (Lin^−/CD34^+/CD38^−/CD123^+).
# Cells of the KG1a cell line were maintained in RPMI medium (Invitrogen, Paisley, UK) supplemented with 100 units/ml penicillin, 100 μg/ml streptomycin and 20% foetal calf serum. Cells were subsequently aliquoted (10^5 cells/100 μl) into 96-well plates and were incubated at 37° C. in a humidified 5% carbon dioxide atmosphere for 72 hrs in the presence of nucleoside analogues and their respective nucleotide analogues (known as ProTides) at concentrations that were experimentally determined for each series of compounds. In addition, control cultures were carried out to which no drug was added. Cells were subsequently harvested by centrifugation and were analyzed by flow cytometry using the Annexin V assay.
# Cultured cells were harvested by centrifugation and then resuspended in 195 μl of calcium-rich buffer. Subsequently, 5 μl of Annexin V (Caltag Medsystems, Botolph Claydon, UK) was added to the cell suspension and cells were incubated in the dark for 10 mins prior to washing. Cells were finally resuspended in 190 μl of calcium-rich buffer together with 10 μl of propidium iodide. Apoptosis was assessed by dual-colour immunofluorescent flow cytometry as described previously. Subsequently LD50 values (the dose required to kill 50% of the cells in a culture) were calculated for each nucleoside analogue and ProTide.
# The data obtained in these experiments were evaluated using one way ANOVA. All data was confirmed as Gaussian or a Gaussian approximation using the omnibus K2 test. LD50 values were calculated from the non-linear regression and line of best-fit analysis of the sigmoidal dose-response curves. All statistical analyses were performed using Graphpad Prism 6.0 software (Graphpad Software Inc., San Diego, Calif.).
# [2] = tested on: FM3A; assay: Cytotoxicity, FM3A; format: cell-based, murine; settings: Mus musculus, read-out: absolute IC50, FM3A
# Excerpt: (§1) Lovo: cell line derived from a metastatic site in a patient with colon cancer MCF7: human oestrogen sensitive mammary epithelial cell line PC3: human prostate cancer cell line A549: cancerous lung tissue derived cells L1210: lymphoblast cell line derived from a mouse with lymphocytic leukaemia FM3A: mammary carcinoma murine cells CEM: human T-lymphoblasts, derived from the blood of a patient with acute lymphoblastic leukaemia HeLa: epithelial cells from a patient with cervical adenocarcinoma
# [3] = tested on: PC3; assay: MTT cytotoxicity assay, PC3; format: cell-based; settings: Homo sapiens, PC-3, 96 h compound exposure, read-out: absolute IC50, PC3
# Excerpt: as §1
# Anti-tumour evaluation in MCF7, LoVo, A549 and PC3 cell lines was performed by MTT assay. Compounds were prepared as 0.1-100 mM stock solutions dissolved in DMSO and stored at −20° C. Cells were seeded into 96-well microtitre plates at a density of 5×10^3 cells per well and allowed 24 hours to adhere. Decimal compound dilutions were prepared in medium immediately prior to each assay (final concentration 0.1-100 μM). Experimental medium was DMEM+10% FCS (PC3 and Lovo) or RPMI+10% heat inactivated FCS (A549 and MCF7). Following 96 h compound exposure at 37° C., 5% CO2, MTT reagent (Sigma Aldrich) was added to each well (final concentration 0.5 mg/ml). Incubation at 37° C. for 4 h allowed reduction of MTT by viable cells to an insoluble formazan product. MTT was removed and formazan solubilised by addition of 10% Triton X-100 in PBS. Absorbance was read on a Tecan Sunrise spectrophotometer at 540 nm as a measure of cell viability; thus inhibition relative to control was determined (IC50).
# [4] = tested on: CTS cell line; assay: Intracellular 8-Cl-ATP/ATP by LC-MS/MS, CTS; format: cell-based; settings: for difference in intracellular accumulation of 8-Cl-ATP on inhibiting hENT1: with NBTI
# Description: (§2) Cell lines with 3×10^6 cells/ml were used. Cells were treated with 1 μl of 20 μM of each 8-Cl-A, compound A, compound B and compound D and incubated for 2 hours at 37° C. with 5% CO2. After incubation, the cells were centrifuged (ambient, 1200 rpm, 5 minutes), the supernatant was removed, and the pellet was washed with lml of PBS and centrifuged (ambient, 1200 rpm, 5 minutes). The supernatant was removed, the pellet was reconstituted in 100 μl of PBS and 100 μl of 0.8M perchloric acid. This was then centrifuged (ambient, 1200 rpm, 5 minutes) and 180 μl of the supernatant was transferred to new tubes and stored at −80° C. until time of analysis.
# (§3) For inhibitor studies the cell lines were treated in the same way as described above but before treatment with drugs, a number of inhibitors were added: • 1) Nitrobenzylthioinosine (NBTI) (Sigma-Aldrich, St. Louis, Mo.) inhibits hENT1. • 2) A-134974 dihydrochloride hydrate (Sigma-Aldrich, St. Louis, Mo.) inhibits adenosine kinase. • 3) EHNA hydrochloride (Sigma-Aldrich, St. Louis, Mo.) inhibits adenosine deaminase.
# (§4) Cells were treated with 1 μl of 10 μM of each inhibitor and left for 5 minutes before adding the drug. The cells were then incubated for 2 hours at 37° C. with 5% CO2.
# (§5) The analytes were resolved using an ultra-performance liquid chromatography system (Accela UPLC, Thermo Scientific, UK) equipped with a Biobasic A×5 μm, 50×2.1 mm column (Thermo Electron Corporation, Murrieta, Calif., USA) and mobile phase consisting of a mixture of 10 mM NH4Ac in ACN/H2O (30:70 v/v), pH6.0 (A), and 1 mM NH4Ac in ACN/H2O (30:70 v/v), pH10.5 (B). The mobile phase gradient was employed, comprising: buffer A=95% at 0-0.5 minutes, from 95 to 0% over 1.25 minutes, held at 0% for 1.75 minutes, from 0-95% over 0.1 minutes, ending with 95% for 2.9 minutes, all at a flow rate of 500 μl/min.
# (§6) For compounds detection a triple stage quadrupole Vantage mass spectrometry system (Thermo Scientific, UK) equipped with an electrospray ion source was used. Samples were analysed in the Multiple Reaction Monitoring, negative ion modes at spray voltage 3000V.
# (§7) The dose-response curves of cytotoxicity of the drugs was determined using non-linear regression analysis of percentage cell viability versus concentration and EC50 values were obtained. The intracellular assay was conducted in five repeats for each condition. Intracellular assay was determined using paired T test (two-tailed) analysis of 8-ChloroATP/ATP concentration and p values were obtained. Drug stability in human plasma was determined using two-way ANOVA analysis. For all the analysis, Prism Software program (GraphPad Software) was used.
# [5] = tested on: HL-60 cell line; assay: Intracellular 8-Cl-ATP/ATP by LC-MS/MS, HL-60; format: cell-based; settings: for difference in intracellular accumulation of 8-Cl-ATP on inhibiting hENT1: HL-60, with NBTI
# Description: as §2, §3, §4, §5, §6, §7
# [6] = tested on: K-562 cell line; assay: Intracellular 8-Cl-ATP/ATP by LC-MS/MS, K-562; format: cell-based; settings: for difference in intracellular accumulation of 8-Cl-ATP on inhibiting hENT1: K-562, with NBTI
# Description: as §2, §3, §4, §5, §6, §7
SMILES,LD50 [1] [µM],cytotoxic potency compared in words [1],IC50 [2] [µM],IC50 [3] [µM],difference in intracellular accumulation of 8-Cl-ATP on inhibiting hENT1 [4],difference in intracellular accumulation of 8-Cl-ATP on inhibiting hENT1 [5],difference in intracellular accumulation of 8-Cl-ATP on inhibiting hENT1 [6],other results
"CCCCCOC(=O)[C@H](C)NP(=O)(OC[C@H]1O[C@@H](n2c(Cl)nc3c(N)ncnc32)C(O)C1O)Oc1cccc2ccccc12 (stereo partly drawn) [Compound E, (2S)-Pentyl 2-(((((2R,3S,4R,5R)-5-(6-amino-8-chloro-9H-purin-9-yl)-3,4-dihydroxy-tetrahydrofuran-2-yl)methoxnaphthalene-1-yloxy)phosphoryl)amino)propanoate]",20,less potent than 8-chloroadenosine,,,,,,
"Nc1ncnc2c1nc(Cl)n2[C@@H]1O[C@H](COP(=O)(NCC(=O)OCc2ccccc2)NCC(=O)OCc2ccccc2)C(O)C1O (stereo partly drawn) [Compound AC, 8-Chloroadenosine 5′-O-bis(benzyloxy-glycin-N-yl) phosphate]",,not as cytotoxic as Isomer A of Compound B,,,,,,
"CC(C)C[C@H](NP(=O)(OC[C@H]1O[C@@H](n2c(Cl)nc3c(N)ncnc32)C(O)C1O)Oc1ccccc1)C(=O)OCc1ccccc1 (stereo partly drawn) [V, 5′-([(Benzyloxy-L-leucin-N-yl)-phenyl]-phosphatyl) 8-chloroadenosine]",,,15 to 100,0.1 to 5,,,,
"C[C@H](NP(=O)(OC[C@H]1O[C@@H](n2c(Cl)nc3c(N)ncnc32)C(O)C1O)Oc1cccc2ccccc12)C(=O)OCc1ccccc1 (stereo partly drawn) [Compound D, (2S)-Benzyl 2-(((((2R,3S,4R,5R)-5-(6-amino-8-chloro-9H-purin-9-yl)-3,4-dihydroxy-tetrahydrofuran-2-yl)methoxynaphthalene-1-yloxy)phosphoryl)amino)propanoate]",3.8,significantly (P<0.0001) more cytotoxic,,,did not produce significant difference,did not produce significant difference,did not produce significant difference,
"Nc1ncnc2c1nc(Cl)n2[C@@H]1O[C@H](COP(=O)(NCC(=O)OCc2ccccc2)Oc2ccccc2)[C@@H](O)[C@H]1O (mixture of isomers) [Compound B, Benzyl 2-(((((2R,3S,4R,5R)-5-(6-amino-8-chloro-9H-purin-9-yl)-3,4-dihydroxytetra-hydrofuran-2-yl)methoxy)(phenoxy)phosphoryl)amino)acetate]",7.1,,0.1 to 5,0.1 to 5,did not produce significant difference,did not produce significant difference,did not produce significant difference,difference in intracellular accumulation of 8-Cl-ATP on inhibiting adenosine kinase ([4]; with A-134974): did not produce significant difference
"Nc1ncnc2c1nc(Cl)n2[C@@H]1O[C@H](CO)[C@@H](O)[C@H]1O [8-chloroadenosine, 8-Chloroadenosine, reference compound]",,,0.1 to 5,0.1 to 5,,,,"8-Cl-ATP/ATP ratio after inhibiting adenosine kinase ([4]; with A-134974): almost zero; 8-Cl-ATP/ATP ratio after inhibiting adenosine kinase ([5]; HL-60, with A-134974): almost zero; 8-Cl-ATP/ATP ratio after inhibiting adenosine kinase ([6]; K-562, with A-134974): almost zero"
"C[C@H](NP(=O)(OC[C@H]1O[C@@H](n2c(Cl)nc3c(N)ncnc32)[C@H](O)[C@@H]1O)Oc1ccccc1)C(=O)OCc1ccccc1 (mixture of isomers) [C, (2S)-Benzyl 2-(((((2R,3S,4R,5R)-5-(6-amino-8-chloro-9H-purin-9-yl)-3,4-dihydroxy-tetrahydrofuran-2-yl)methoxy)(phenoxy)phosphoryl)amino)propanoate]",1.6,,15 to 100,0.1 to 5,,,,
"Nc1ncnc2c1nc(Cl)n2[C@@H]1O[C@H](COP(=O)(NCC(=O)OC2CCCCC2)Oc2ccccc2)[C@@H](O)[C@H]1O (mixture of isomers) [Compound A, Cyclohexyl 2-(((((2R,3S,4R,5R)-5-(6-amino-8-chloro-9H-purin-9-yl)-3,4-dihydroxy-tetrahydrofuran-2-yl)methoxy)(phenoxy)phosphoryl)amino)acetate]",,,> 100,15 to 100,did not produce significant difference,did not produce significant difference,did not produce significant difference,"difference in intracellular accumulation of 8-Cl-ATP on inhibiting adenosine kinase ([4]; with A-134974): did not produce significant difference; difference in intracellular accumulation of 8-Cl-ATP on blocking adenosine kinase ([5]; HL-60, with A-134974): did not produce significant difference; difference in 8-Cl-ATP concentration on inhibiting adenosine kinase ([6]; K-562, with A-134974): did not produce significant difference"
